# Data reported in PMC4047164 (Biochimica et biophysica acta, 2014).
# Where two headings read alike, the source gives them in different places.
# Key:
# S. aureus cells = experiment: Membrane potential of intact cells by DisC3; assay type: cell-based
# NdhC [1] = molecular target: T1, NdhC (Staphylococcus aureus, UniProt Q2YWP9); experiment: Inhibition of purified NdhC NADH dehydrogenase activity with DMN in detergent; assay type: biochemical, S. aureus; conditions: read-out: % of Inhibition by 50 μM phenothiazines, NdhC, DMN
# T1 sequence (Q2YWP9 whole entry): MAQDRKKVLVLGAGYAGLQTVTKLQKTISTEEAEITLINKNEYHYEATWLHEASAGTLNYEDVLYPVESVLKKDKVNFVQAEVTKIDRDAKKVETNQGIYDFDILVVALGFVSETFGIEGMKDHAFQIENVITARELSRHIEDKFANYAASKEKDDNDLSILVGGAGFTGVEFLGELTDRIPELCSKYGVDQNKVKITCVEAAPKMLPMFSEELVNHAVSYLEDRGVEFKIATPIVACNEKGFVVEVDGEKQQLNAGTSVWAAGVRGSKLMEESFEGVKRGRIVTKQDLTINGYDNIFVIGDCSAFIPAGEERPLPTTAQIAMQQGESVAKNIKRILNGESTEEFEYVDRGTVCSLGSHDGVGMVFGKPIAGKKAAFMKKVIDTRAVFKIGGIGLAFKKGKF
# S. aureus [2] = experiment: Drug susceptibility determination; assay type: cell-based; conditions: Staphylococcus aureus, 20 h
# S. aureus [3] = conditions: cited from earlier work
# [4] = tested on: inverted membrane vesicles from E. coli; assay type: biochemical
# [5] = tested on: inverted membrane vesicles from E. coli; assay type: biochemical; conditions: NADH-energized vesicles
# S. aureus membranes = experiment: NADH-driven respiration; assay type: biochemical; conditions: for Inhibition of NADH-dependent oxygen consumption: 50 μM compound, membranes ∼ 200 μg/ml
# NdhC [6] = molecular target: T1, NdhC; experiment: biochemical; set-up: species or system S. aureus; conditions: read-out: % of Inhibition by 50 μM phenothiazines, NdhC, Q8
# NdhF [7] = molecular target: T2, NdhF (Staphylococcus aureus, UniProt Q2FZW0); experiment: biochemical; conditions: read-out: % of Inhibition by 50 μM phenothiazines, NdhF, Q8
# NdhF [8] = molecular target: T2, NdhF; experiment: biochemical; conditions: read-out: % of Inhibition by 50 μM phenothiazines, NdhF, DMN
# [9] = tested on: isolated rat liver mitochondria; conditions: cited from earlier work
# [10] = control agents, Figure S5, concentration not given
# [11] = Figure 5 legend, concentration not given
Compound,inhibition at 50 µM (NdhC [1]) [%],MIC (S. aureus [2]) [µM],reported MIC values for inhibition of growth (S. aureus [3]) [µM],"Effect on pH gradient (ACMA fluorescence) [4, 10]","Effect on membrane potential (Oxonol VI fluorescence) [5, 11]",Inhibition of NADH-dependent oxygen consumption (S. aureus membranes),other results
N#CC(C#N)=NNc1cccc(Cl)c1 [CCCP],,,,,,,"Effect on membrane potential (DisC3(5) fluorescence) (S. aureus cells; 1 μM CCCP, validation control): rapid collapse of the membrane potential"
"CN(C)CCCN1c2ccccc2Sc2ccc(Cl)cc21 [CPZ, Chlorpromazine]",73 ± 8,170 ± 15,90 to 125,,,,
C(=NC1CCCCC1)=NC1CCCCC1 [DCCD],,,,collapse of the pH gradient,,,
CC(C)(C)c1cc(C=C(C#N)C#N)cc(C(C)(C)C)c1O [SF6847],,,,collapse of the pH gradient,dissipation of the membrane potential,,
"CN1CCN(CCCN2c3ccccc3Sc3ccc(C(F)(F)F)cc32)CC1 [TPZ, Trifluoperazine]",54 ± 6,70 ± 10,40 to 60,,,fully inhibited,"NADH-driven respiration in presence of 50 μM TPZ (S. aureus membranes; 50 μM TPZ, uninhibited activity 659 ± 28): 8 ± 1 μmole O2 mg^-1 protein s^-1; IC50 (S. aureus membranes; read-out: IC50, respiration of S. aureus membranes, NADH as electron donor): 18.5 ± 3 µM; inhibition at 50 µM (NdhC [6]): 80 ± 10%; inhibition at 50 µM (NdhF [7]): 0%; inhibition at 50 µM (NdhF [8]): 0%"
"CSc1ccc2c(c1)N(CCC1CCCCN1C)c1ccccc1S2 (stereo not shown) [TZ, Thioridazine]",,70 ± 9,40 to 60,,dissipation of the membrane potential,fully inhibited,"Effect on membrane potential (DisC3(5) fluorescence) (S. aureus cells; 50 μM TZ): rapid collapse of the membrane potential; Effect on membrane potential (DisC3(5) fluorescence) (S. aureus cells; different TZ concentrations, immediate, concentration-dependent (Figure 3A)): collapse of the membrane potential; Effect on pH gradient (ACMA fluorescence) ([4]; 3 μM TZ, gradient generated by the ATPase or by succinate-driven respiration): completely collapse the pH gradient; Effect on membrane potential (Oxonol VI fluorescence) ([5]; 10 μM TZ): completely dissipated; Uncoupler activity [9]: weak uncoupler of oxidative phosphorylation"
